Consider one substance from patent publication US20100330029A1, “Cancer Treatments with Radiation and Immunocytokines” (Merck Patent GmbH, priority 2008, published 2010).

One experiment has as its system B16 melanoma. In words: tumor growth assay, B16 model. The format is in vivo, mice. Particulars: Experiment B16-1; 10 Gy d0 followed by i.v. EMD521873 days 3, 4, 5. On the procedure: B16 cells, a murine melanoma cell line, were maintained in RPMI 1640, supplemented with 10% heat inactivated fetal bovine serum, L-glutamine, sodium pyruvate, non-essential amino acids, penicillin/streptomycin (Life Technologies, Inc.) at 37° C. and 7% CO2. B16 cells were implanted in female C57BL/6 mice.
For the tumor growth assay, cells growing exponentially in culture were injected as a single cell suspension in 100 μl of PBS intramuscularly into the upper legs of the mice. In experiments using a dual tumor model, cells were also implanted in the flanks of the mice. After tumors had become established, treatment was initiated (day 0). In Experiment LLC-7, tumors were implanted in the flank until established. Mice were treated on days 0 to 9, then, on day 12, tumors were excised using survival surgery. Thereafter, animal survival was monitored. […] Mice were treated on days 0 to 6 and day 17, and tumor size was measured twice weekly for the duration of the study.
Tumors were measured with calipers in three dimensions for the duration of the experiment. Tumor volumes were calculated using the equation: […]
In addition, there was a moderate, but significant increase in certain immune response markers in the tumor as measured by immune marker gene expression profiles with CD25, TNFA, TYROBP, ICOS and CD45 being modulated >4-fold compared to either therapy alone.

Experiment [1] relates to CD8 effector cells in the blood. In words: FACS analysis of blood, LLC dual tumor model. The format is in vivo, mice. The following applies: Experiment LLC-6; combination compared to either chemoradiation or EMD521873 alone. On the procedure:
Immune effector cell populations in blood were analyzed by FACS. Blood was collected from the retro-orbital sinus of each mouse. Red blood cells were eliminated using lysis buffer. After blocking with rat IgG (1:50), samples were incubated with a 7-color cocktail of antibodies against CD4, CD8, CD25, CD44, CD62L, CD11b, and DX5. Samples were run on a FacsARIA and analyzed for various cell subpopulations.
(§1) In another experiment, LLC tumors were established subcutaneously in both the leg and flank of the same animal. Animals were then treated with either cisplatin (4 mg/kg, d0) plus fractionated radiation given to the leg tumor (3.6 Gy/d, d0-4), i.v. EMD521873 alone (5 mg/kg, d7, 8, 9), or the combination of EMD521873 plus chemoradiation (Experiment LLC-6). Tumor growth and immune response in both the irradiated leg tumor and the non-irradiated flank tumor were monitored. […] CD8 effector cells were increased by approximately 4-fold in the blood with the combination compared to either chemoradiation or EMD521873 alone.
In general terms: A flow cytometer gives signals particle by particle.

The subject of experiment [2] is CD8 cell infiltration in tumors. In words: immunohistochemical analysis of CD8 cell infiltration in LLC tumors. Particulars: Experiment LLC-6; combination compared to the monotherapies. The format is in vivo, mice. On the procedure:
as §1

Another experiment relates to LLC tumors. In words: survival after surgical removal of treated LLC tumor. The following applies: Experiment LLC-7; EMD521873 5 mg/kg d7, 8, 9 plus chemoradiation; tumor removed day 12 or 13. In kind it is in vivo, mice. On the procedure: For the tumor growth assay, cells growing exponentially in culture were injected as a single cell suspension in 100 μl of PBS intramuscularly into the upper legs of the mice. In experiments using a dual tumor model, cells were also implanted in the flanks of the mice. After tumors had become established, treatment was initiated (day 0). In Experiment LLC-7, tumors were implanted in the flank until established. Mice were treated on days 0 to 9, then, on day 12, tumors were excised using survival surgery. Thereafter, animal survival was monitored. In Experiment LLC-14, tumors were implanted subcutaneously in the flank until established. Mice were treated on days 0 to 6 and day 17, and tumor size was measured twice weekly for the duration of the study.
In another experiment the ability of local irradiation followed by immunocytokine administration to reduce tumor recurrence following surgery was tested (Experiment LLC-7). Mice with subcutaneous LLC tumors were treated with either chemoradiation (cisplatin 4 mg/kg, d0 plus 3.6 Gy/d, d0-4 of fractionated radiation given to the tumor) or EMD521873 (5 mg/kg, d7, 8, 9) plus chemoradiation. The remaining tumor was then surgically removed on day 12 or 13 and survival was monitored. Ten out of 12 mice treated with the combination achieved long term survival compared to 6 out of 10 treated with radiation alone.

The next experiment has as its system malignant melanoma. In words: study in cutaneous/subcutaneous malignant melanoma. In kind it is in vivo. The following applies: human melanoma; EMD521873 0.3 mg/kg and local radiation vs EMD521873 only. As for the experimental part:
A study is performed to investigate the responses of cutaneous metastases in patients with stage IIIb-IV cutaneous/subcutaneous malignant melanoma to EMD521873 at the tumor site and in blood to EMD521873 in combination with local irradiation (25 Gy). The first treatment cycle with EMD521873 starts on day 1. Subsequent cycles are administered at 3-week intervals. Prior to the first dose of EMD521873, subjects are treated with two courses of local radiation (25 Gy) administered in fractions of 5 Gy on 5 consecutive days ([…]; and days −7 to −3) to different metastases.
For each patient, at least two cutaneous or subcutaneous lesions eligible for biopsy are selected for potential radiation (lesion A1 and lesion A2) and, if present, a third lesion (lesion A3) is also selected. A biopsy of a cutaneous/subcutaneous lesion (lesion A1) and blood sampling are performed at baseline (D-28). After 7 days, allowing for the necessary healing of the biopsy area, lesion A1 is irradiated (5×5 Gy) over 5 consecutive days starting on day −21 (D−21 to D−17). On day −7 (D−7) blood samples are withdrawn and a biopsy of the irradiated lesion A1 is taken. This tumor sample serves as an intraindividual control to assess the effect of radiation alone. On day −14, the pre-selected lesions A2 and A3 are also biopsied and blood drawn. […]

On to “dI-NHS76γ2(h)(FN>AQ)-ala-IL2(D20T) [EMD521873]”, for which the anti-tumor activity entry with B16 melanoma is recorded as “greater anti-tumor activity compared to either treatment alone”. Besides, the “CD8 effector cells increased in the blood” value in experiment [1] is “approximately 4 fold”. Also, in experiment [2], the “CD8 cell infiltration enhanced, irradiated lesion” value is 9 fold and the “CD8 cell infiltration enhanced, non-irradiated lesion” value is given as 3.5 fold. Moreover, the “long term survival after surgery” value with LLC tumors is listed as “Ten out of 12”. Moreover, the “tumor progression (PET or CT scan)” value in the experiment with malignant melanoma is “reduced tumor progression”.
